Results from ChEMBL document CHEMBL1139388, “Crystal structure of the Homo sapiens kynureninase-3-hydroxyhippuric acid inhibitor complex: insights into the molecular basis of kynureninase substrate specificity” (J Med Chem, 2009).
Activity calls are given as the source filed them. No cut-off for these calls is given here.

Target: T1, Kynureninase (Homo sapiens) (UniProt Q16719)
T1 sequence (whole entry): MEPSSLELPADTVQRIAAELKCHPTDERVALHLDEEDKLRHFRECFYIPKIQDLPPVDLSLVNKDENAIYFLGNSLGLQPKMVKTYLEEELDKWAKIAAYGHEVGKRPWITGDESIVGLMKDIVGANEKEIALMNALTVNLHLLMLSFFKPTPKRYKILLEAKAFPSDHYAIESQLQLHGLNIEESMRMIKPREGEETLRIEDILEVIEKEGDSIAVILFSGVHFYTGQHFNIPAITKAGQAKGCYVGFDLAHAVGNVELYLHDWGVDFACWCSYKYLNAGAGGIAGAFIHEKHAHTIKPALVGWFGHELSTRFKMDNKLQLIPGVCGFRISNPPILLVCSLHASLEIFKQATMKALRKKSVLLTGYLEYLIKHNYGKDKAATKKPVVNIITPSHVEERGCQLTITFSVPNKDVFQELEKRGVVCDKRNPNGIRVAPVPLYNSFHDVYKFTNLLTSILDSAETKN
Assay: Inhibition of human kynureninase at 1 mM

Activity	Structure (SMILES)
inactive	Nc1c(O)cccc1C(=O)NCC(=O)O
inactive	O=C(O)CNC(=O)c1ccccc1
